Patent US8653126B2, “Imidazole derivative” (Daiichi Sankyo Company, Limited, priority 2010, dated 2014)

Biological target: T1, S1P lyase (Mus musculus, UniProt Q8R0X7)
T1 construct: The extirpated thymus was crushed; from tissue; host or cells: thymus of BALB/c mice (thymus extract)
T1 sequence (Q8R0X7 1-568): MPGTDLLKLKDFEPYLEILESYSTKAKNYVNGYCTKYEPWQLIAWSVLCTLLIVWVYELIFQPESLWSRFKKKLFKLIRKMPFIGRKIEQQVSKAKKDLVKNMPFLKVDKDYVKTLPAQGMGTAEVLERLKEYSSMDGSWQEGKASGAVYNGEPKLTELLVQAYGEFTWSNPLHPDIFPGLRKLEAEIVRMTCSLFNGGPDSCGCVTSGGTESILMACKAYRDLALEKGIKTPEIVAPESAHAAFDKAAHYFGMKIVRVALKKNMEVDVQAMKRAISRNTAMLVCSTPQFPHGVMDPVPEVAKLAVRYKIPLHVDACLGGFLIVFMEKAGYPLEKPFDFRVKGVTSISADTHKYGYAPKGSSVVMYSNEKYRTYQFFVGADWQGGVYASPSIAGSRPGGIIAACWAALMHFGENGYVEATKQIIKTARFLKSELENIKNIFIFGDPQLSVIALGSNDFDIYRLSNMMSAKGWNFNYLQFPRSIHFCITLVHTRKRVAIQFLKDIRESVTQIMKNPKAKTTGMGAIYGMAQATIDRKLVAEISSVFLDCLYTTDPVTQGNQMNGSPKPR
Experiment: S1P lyase inhibitory capacity in mice (thymus extract after oral dosing)
Assay type: in vivo
Conditions: BALB/c mice, single oral dose, S1P lyase activity of thymus extract with [3H]dhS1P
Description: Male BALB/c mice at age 6 weeks were purchased from Charles River Laboratories Japan Inc. Mice that had reached age 7 weeks after 1-week acclimation were used for the experiment. A group of 5 animals was used for the experiment. The necessary amount of the analyte was weighed, and subsequently suspended in a 0.5% MC solution using a mortar and a pestle. The solution to be administered was prepared so as to be 10 mL per 1 kg of body weight. The prepared compound solution was administered orally in a single dose using a stomach tube.
Dipotassium dihydrogen ethylenediaminetetraacetate (EDTA-2K, Nacalai Tesque, Inc.) was dissolved with water for injection so as to be 5% (5% EDTA-2K solution). […] At that time, the thymus was also extirpated. The obtained blood was handled under the condition of room temperature until measurement. […]
The extirpated thymus was crushed by means of either a method using zirconia beads in the presence of 500 μl, of a homogenization buffer (50 mM HEPES-NaOH (pH=7.4), 0.15 M NaCl, 10% Glycerol, 1 mM EDTA, 1 mM DTT, complete protease inhibitor cocktail (Roche, #4693132)), or a method using Potter-Elvehjem type homogenizer after mincing. […] After the proteins of the supernatant were quantified with Bradford method, the supernatant was instantly frozen with liquid nitrogen, and subsequently stored at −80° C. […]

Structure (SMILES): CCOCn1cc(CO)nc1C(C)=O [Example 1, 1-(1-Ethoxymethyl-4-hydroxymethyl-1H-imidazol-2-yl)ethanone]
- S1P lyase inhibition in mice: inhibited S1P lyase in mice

Structure (SMILES): COCn1cc(CO)nc1C(C)=O [Example 5, 1-(4-Hydroxymethyl-1-methoxymethyl-1H-imidazol-2-yl)ethanone]
- S1P lyase inhibition in mice: inhibited S1P lyase in mice
